Assay results published in US20160067248A1, “COMBINATIONS” (GlaxoSmithKline Intellectual Property Development Limited, priority 2011, published 2016).

Legend:
[1] = tested on: SKOV3-Ip1 / HeyA8 tumor xenograft; assay: Combination study, intraperitoneal ovarian tumor xenograft models in nude mice; assay type: in vivo; details: pazopanib 100 mg/kg oral daily
Experimental: Tumor cells were injected intraperitoneally into nude mice. For the first study, mice were inoculated with 1,000,000 SKOV3-Ip1 cells. For the second study, mice were inoculated with 250,000 HeyA8 cells. At the time of inoculation, mice were randomized into groups to be treated by oral gavage and intraperitoneal injection. The animals were grouped as described below. The criteria for end point was animals in any group being moribund. At the time of dissection, animals were sacrificed by cervical dislocation and necropsy immediately performed. Tumor nodules were counted and aggregate tumor weight (g) was recorded. Tumors were fixed in 10% formalin, and fresh tumor was flash-frozen for future analysis.
The goal of this study was to determine the in vivo effects of each of pazopanib, the FAK inhibitor, and docetaxel, alone and in combinations. Nude mice were inoculated with tumor as described above and randomized to the groups below. The following doses of each inhibitor were used: FAK-inhibitor, 75 mg/kg, oral, daily; pazopanib, 100 mg/kg, oral, daily; docetaxel, 35 ug, IP, weekly. […] Tumor nodules were counted and aggregate tumor weight (g) was recorded. […]
In vitro dose-response, in vivo tumor growth and scoring of the immunohistochemistry are presented as mean±Standard Error. Statistical significance was assessed by student's T-test and P≦0.05 was considered to be significant. […]

[2] = target: T1, FAK phosphorylation at Y397 (pFAK^Y397) (Homo sapiens, UniProt Q05397); assay: FAK phosphorylation at Y397 (pFAK Y397) in ovarian cancer cells; assay type: cell-based
T1 construct: endogenous in cells; host or cells: SKOV3-IP1 and HeyA8 cells

[3] = tested on: SKOV3-IP1 cells; assay: Migration of SKOV3-IP1 cells; assay type: cell-based, human; details: p<0.001
[4] = tested on: SKOV3-IP1 cells; assay: Invasion of SKOV3-IP1 cells; assay type: cell-based, human; details: p<0.001

T1 sequence (Q05397 whole entry): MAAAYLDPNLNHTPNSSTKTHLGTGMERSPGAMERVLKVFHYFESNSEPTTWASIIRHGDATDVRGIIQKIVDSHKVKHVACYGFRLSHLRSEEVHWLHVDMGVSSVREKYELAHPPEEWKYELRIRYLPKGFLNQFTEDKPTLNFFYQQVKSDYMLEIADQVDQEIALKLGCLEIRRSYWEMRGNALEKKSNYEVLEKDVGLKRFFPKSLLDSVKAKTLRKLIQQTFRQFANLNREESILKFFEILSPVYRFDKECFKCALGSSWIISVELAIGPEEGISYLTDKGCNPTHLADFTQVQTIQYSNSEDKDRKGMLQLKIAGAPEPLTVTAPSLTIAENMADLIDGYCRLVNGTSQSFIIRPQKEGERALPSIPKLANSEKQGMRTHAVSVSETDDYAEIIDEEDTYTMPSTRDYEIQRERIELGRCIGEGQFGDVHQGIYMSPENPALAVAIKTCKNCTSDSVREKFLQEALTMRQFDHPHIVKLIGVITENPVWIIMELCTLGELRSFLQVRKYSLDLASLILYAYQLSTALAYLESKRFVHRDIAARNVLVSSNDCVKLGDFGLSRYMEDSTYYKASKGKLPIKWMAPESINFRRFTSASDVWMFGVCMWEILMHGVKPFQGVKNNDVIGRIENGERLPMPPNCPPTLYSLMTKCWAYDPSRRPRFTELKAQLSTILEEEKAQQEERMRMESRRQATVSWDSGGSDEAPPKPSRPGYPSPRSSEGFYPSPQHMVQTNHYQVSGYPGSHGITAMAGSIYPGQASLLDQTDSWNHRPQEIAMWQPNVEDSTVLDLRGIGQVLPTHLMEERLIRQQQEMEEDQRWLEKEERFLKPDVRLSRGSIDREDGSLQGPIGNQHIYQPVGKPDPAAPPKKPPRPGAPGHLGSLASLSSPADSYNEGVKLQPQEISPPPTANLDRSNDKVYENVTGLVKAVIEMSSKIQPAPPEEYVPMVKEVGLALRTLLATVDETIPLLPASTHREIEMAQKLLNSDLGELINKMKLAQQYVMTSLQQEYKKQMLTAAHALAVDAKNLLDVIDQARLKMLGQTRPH

Compound | decrease of MVD ([1]; p<0.01) [%] | levels of FAK phosphorylation at Y397 (pFAK^Y397) ([2]; HeyA8 cells, 10 μM) | levels of FAK phosphorylation at Y397 (pFAK^Y397) ([2]; SKOV3-IP1 cells, 1 μM concentration) | decrease in mean tumor weight compared to control ([1]; nude mice, i.p. tumor, FAK-inhibitor 75 mg/kg oral daily, docetaxel 35 ug IP weekly) [%] | reduction in migration [3] [%] | reduction in invasion [4] [%]
Cc1ccc(Nc2nccc(N(C)c3ccc4c(C)n(C)nc4c3)n2)cc1S(N)(=O)=O [pazopanib, 5-[[4-[(2,3-dimethyl-2H-indazol-6-yl)methylamino]-2-pyrimidinyl]amino]-2-methylbenzenesulfonamide, reference compound] | 49 |  |  |  |  | 
CONC(=O)c1ccccc1Nc1cc(Nc2cc(C)nn2C(C)C)ncc1Cl [FAK-inhibitor, 2-[(5-chloro-2-[[3-methyl-1-(1-methylethyl)-1H-pyrazol-5-yl]amino]-4-pyridinyl)amino]-N-methoxybenzamide] |  | reduced levels | reduced levels | 58 | 54 | 12.5
